Measured values published in patent US10954228B2 (NATIONAL INSTITUTES OF HEALTH, UNITED STATES DEPARTMENT OF …, priority 2016, dated 2021).

Columns and labels:
Human LDHA = Human LDHA (Homo sapiens (Human), UniProt P00338); test: human LDHA primary biochemical assay; details: biochemical LDHA inhibitory activity, assay of Example 1; activity level classes defined in nM
How it was run: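 Human LDHA at 2 nM with 0.06 mM NADH and 0.2 mM sodium pyruvate in 200 mM Tris HCl pH 7.4, 100 μM EDTA, 0.01% TWEEN-20 (final). NADH consumption coupled to resazurin/diaphorase (0.037 mM; 0.133 mg/mL); inhibition read by fluorescence.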

MiaPaCa2 cells = test: cell-based HT lactate assay by colorimetric/fluorometric detection (cellular inhibition of lactate production)
Protocol: This example describes a cell-based metabolite assay by colorimetric/fluorometric detection employed in the characterization of a compound of formula (I) in an embodiment of the invention.
Cell-based HT Lactate assay is a miniaturized Biovision Lactate Colorimetric/Fluorometric Assay Kit (Cat #K607-100). The assay is roughly a 3.5 hour assay run in a 1536 plate format. Cell number optimization should be run for each cell line to achieve an optimal number in which lactate production equals roughly 90% of the standard curve range. Cell number per well optimization has been performed with the following cell lines: MiaPaCa2—500 cells/well, SNU398—500 cells/well, and P493—500 cells/well.

[1] = Homo sapiens, MIA PaCa-2, assay of Example 6

## NS(=O)(=O)c1ccc(Cc2c(-c3cccc(C#Cc4ccc(C(F)(F)F)s4)c3)nn(-c3nc(C(=O)O)cs3)c2CC2CC2)cc1F [Compound 124, 2-(5-(cyclopropylmethyl)-4-(3-fluoro-4-sulfamoylbenzyl)-3-(3-((5-(trifluoromethyl)thiophen-2-yl)ethynyl)phenyl)-1H-pyrazol-1-yl)thiazole-4-carboxylic acid]
Human LDHA
  IC50: 100 to 1000 nM
MiaPaCa2 cells; [1]
  IC50: < 1000 nM

## Cc1cc(C)c(C#Cc2cccc(-c3nn(-c4nc(C(=O)O)cs4)c(CC4CC4)c3Cc3ccc(S(N)(=O)=O)c(F)c3)c2)s1 [Compound 125, 2-(5-(cyclopropylmethyl)-3-(3-((3,5-dimethylthiophen-2-yl)ethynyl)phenyl)-4-(3-fluoro-4-sulfamoylbenzyl)-1H-pyrazol-1-yl) thiazole-4-carboxylic acid]
Human LDHA
  IC50: < 100 nM
MiaPaCa2 cells; [1]
  IC50: < 1000 nM

## CC(C)c1ccc(C#Cc2cccc(-c3nn(-c4nc(C(=O)O)cs4)c(CC4CC4)c3Cc3ccc(S(N)(=O)=O)c(F)c3)c2)s1 [Compound 127, 2-(5-(cyclopropylmethyl)-4-(3-fluoro-4-sulfamoylbenzyl)-3-(3-((5-isopropylthiophen-2-yl)ethynyl)phenyl)-1H-pyrazol-1-yl)thiazole-4-carboxylic acid]
Human LDHA
  IC50: 100 to 1000 nM
MiaPaCa2 cells; [1]
  IC50: < 1000 nM

## Cc1ccc(C#Cc2cccc(-c3nn(-c4nc(C(=O)O)cs4)c(CC4CC4)c3Cc3ccc(S(N)(=O)=O)c(F)c3)c2)o1 [Compound 129, 2-(5-(cyclopropylmethyl)-4-(3-fluoro-4-sulfamoylbenzyl)-3-(3-((5-methylfuran-2-yl)ethynyl)phenyl)-1H-pyrazol-1-yl)thiazole-4-carboxylic acid]
Human LDHA
  IC50: < 100 nM
MiaPaCa2 cells; [1]
  IC50: < 1000 nM

## Cc1ccc(C2CC2c2cccc(-c3nn(-c4nc(C(=O)O)cs4)c(CC4CC4)c3Cc3ccc(S(N)(=O)=O)c(F)c3)c2)s1 (stereo not drawn) [Compound 130, 2-(5-(cyclopropylmethyl)-4-(3-fluoro-4-sulfamoylbenzyl)-3-(3-(2-(5-methylthiophen-2-yl)cyclopropyl)phenyl)-1H-pyrazol-1-yl)thiazole-4-carboxylic acid]
Human LDHA
  IC50: < 100 nM
MiaPaCa2 cells; [1]
  IC50: < 1000 nM

## Cc1ccc(C#Cc2cccc(-c3nn(-c4nc(C(=O)O)cs4)c(C4CC45CC5)c3Cc3ccc(S(N)(=O)=O)c(F)c3)c2)s1 (stereo not drawn) [Compound 131, 2-(4-(3-fluoro-4-sulfamoylbenzyl)-3-(3-((5-methylthiophen-2-yl)ethynyl)phenyl)-5-(spiro[2.2]pentan-1-yl)-1H-pyrazol-1-yl)thiazole-4-carboxylic acid]
Human LDHA
  IC50: < 100 nM
MiaPaCa2 cells; [1]
  IC50: < 1000 nM

## Cc1ccc([C@H]2C[C@@H](c3cccc(-c4nn(-c5nc(C(=O)O)cs5)c(CC5CC5)c4Cc4ccc(S(N)(=O)=O)c(F)c4)c3)C2)s1 [Compound 132, 2-(5-(cyclopropylmethyl)-4-(3-fluoro-4-sulfamoylbenzyl)-3-(3-((cis)-3-(5-methylthiophen-2-yl)cyclobutyl)phenyl)-1H-pyrazol-1-yl)thiazole-4-carboxylic acid]
Human LDHA
  IC50: < 100 nM
MiaPaCa2 cells; [1]
  IC50: < 1000 nM

## Cc1ccc(C2CC(c3cccc(-c4nn(-c5nc(C(=O)O)cs5)c(CC5CC5)c4Cc4ccc(S(N)(=O)=O)c(F)c4)c3)C2)s1 (stereo not drawn) [Compound 133, 2-(5-(cyclopropylmethyl)-4-(3-fluoro-4-sulfamoylbenzyl)-3-(3-(3-(5-methylthiophen-2-yl)cyclobutyl)phenyl)-1H-pyrazol-1-yl)thiazole-4-carboxylic acid]
Human LDHA
  IC50: < 100 nM
MiaPaCa2 cells; assay of Example 6
  IC50: < 1000 nM

## Cc1ccc(-c2cc(-c3nn(-c4nc(C(=O)O)cs4)c(CC4CC4)c3Cc3ccc(S(N)(=O)=O)c(F)c3)ccc2F)cc1F [Compound 137, 2-(5-(cyclopropylmethyl)-3-(3′,6-difluoro-4′-methyl-[1,1′-biphenyl]-3-yl)-4-(3-fluoro-4-sulfamoylbenzyl)-1H-pyrazol-1-yl)thiazole-4-carboxylic acid]
Human LDHA
  IC50: < 100 nM
MiaPaCa2 cells; [1]
  IC50: < 1000 nM
